These results are taken from paper PMC5777755, “Functional characterization of a unique cytochrome P450 in Toxoplasma gondii” (Oncotarget, 2017).

The target in this test is T1, Tg-P450 (Toxoplasma gondii, UniProt S8EQL7).
T1 construct: gene TGME49_315770; P450 knockout as negative control
Nature of the test: in situ fluorescence microscopy of resorufin formation (rhodamine filter), knockout control. Particulars: 1 uM, 24 h, 37 °C; live tachyzoites in HepG2 cells; strain given as Tg-P450 OE in text, GT1 in figure legend. It counts as cell-based.

T1 sequence (S8EQL7 entry or part of it): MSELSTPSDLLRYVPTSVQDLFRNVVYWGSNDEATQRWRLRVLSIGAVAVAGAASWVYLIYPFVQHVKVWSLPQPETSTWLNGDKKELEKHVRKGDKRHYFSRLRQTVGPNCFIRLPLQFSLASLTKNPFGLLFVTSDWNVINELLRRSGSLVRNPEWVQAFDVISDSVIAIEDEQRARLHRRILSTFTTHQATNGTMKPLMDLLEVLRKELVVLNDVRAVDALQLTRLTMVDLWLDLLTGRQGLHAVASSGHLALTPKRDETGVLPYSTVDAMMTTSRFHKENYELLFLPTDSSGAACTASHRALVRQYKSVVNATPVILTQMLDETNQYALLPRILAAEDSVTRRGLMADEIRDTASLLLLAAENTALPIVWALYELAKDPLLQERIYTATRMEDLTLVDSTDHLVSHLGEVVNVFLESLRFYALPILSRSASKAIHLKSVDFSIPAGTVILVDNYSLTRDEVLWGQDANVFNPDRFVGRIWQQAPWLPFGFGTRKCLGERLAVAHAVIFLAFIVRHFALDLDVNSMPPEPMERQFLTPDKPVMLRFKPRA

In the case of `CCCCCOc1ccc2nc3ccc(=O)cc-3oc2c1` [PR, pentoxyresorufin], the “in situ fluorescence microscopy of resorufin formation (rhodamine filter), knock” value is reported as “a weak specific fluorescence signal was visible in the Tg-P450 OE strain”.
Under `O=c1ccc2nc3ccc(OCc4ccccc4)cc3oc-2c1` [BR, benzoxyresorufin] stands “After treating the P450 knockout parasites with PR and BR, no fluorescence was observed”.
